According to the NIST ThermoML archive (doi:10.1021/je050202g):

How the values were obtained:
[1] = wn = mass fraction of the nth substance listed; conditions: Wilhelmy Plate method
[2] = cn = amount concentration of the nth substance listed, in mol/dm3; conditions: 101.3 kPa, Liquid; for viscosity: Capillary tube (Ostwald / Ubbelohde) method
[3] = Wilhelmy Plate method

C1CNCCN1 [piperazine] + O
Conditions	mass density, [2] [kg/m3]	surface tension liquid-gas, [1] [mN/m]	viscosity, [2] [mPa·s]
293.15 K, c1 = 0.623	1000.46	–	1.26
293.15 K, c1 = 1.006	1002.49	–	1.52
293.15 K, c1 = 1.49	1005.4	–	1.87
293.15 K, w1 = 0.043	–	71.7	–
293.15 K, w1 = 0.086	–	70.1	–
293.15 K, w1 = 0.129	–	69.3	–
298.15 K, c1 = 0.623	999.37	–	1.11
298.15 K, c1 = 1.006	1001.3	–	1.31
298.15 K, c1 = 1.49	1004.11	–	1.62
298.15 K, c1 = 1.686	1005.39	–	1.8
303.15 K, c1 = 0.623	997.94	–	0.98
303.15 K, c1 = 1.006	999.79	–	1.15
303.15 K, c1 = 1.49	1002.47	–	1.4
303.15 K, c1 = 1.686	1003.66	–	1.56
313.15 K, c1 = 0.623	994.25	–	0.79
313.15 K, c1 = 1.006	996.03	–	0.92
313.15 K, c1 = 1.49	998.49	–	1.09
313.15 K, c1 = 1.686	999.49	–	1.2
313.15 K, w1 = 0.043	–	68.5	–
313.15 K, w1 = 0.086	–	67.8	–
313.15 K, w1 = 0.129	–	67.6	–
323.15 K, c1 = 0.623	989.76	–	0.65
323.15 K, c1 = 1.006	991.53	–	0.75
323.15 K, c1 = 1.49	993.86	–	0.88
323.15 K, c1 = 1.686	994.74	–	0.96

O [water]
[3]
Conditions	surface tension liquid-gas [mN/m]
293.15 K	72.7
313.15 K	69.8

O [water] + C1CNCCN1
[1], w2 = 0
Conditions	surface tension liquid-gas [mN/m]
293.15 K	72.7
313.15 K	69.8
